Assays:
[1] = Liquid, Ebulliometric method (Recirculating still)
[2] = Boiling temperature at pressure P; conditions: Liquid, Ebulliometric method (Recirculating still)

CC(=O)OCC(C)C [2-methylpropyl ethanoate]
Conditions | Boiling temperature at pressure P [°C] | vapor or sublimation pressure [kPa]
[1], 367.51 K | – | 50
[1], 388.93 K | – | 100
[1], 389.37 K | – | 100
[1], 403.22 K | – | 150
[1], 403.64 K | – | 150
[2], 39.99 kPa | 88 | –
[2], 49.98 kPa | 94.26 | –
[2], 59.99 kPa | 99.74 | –
[2], 70 kPa | 104.24 | –
[2], 80 kPa | 108.43 | –
[2], 90 kPa | 112.39 | –
[2], 100 kPa | 116.22 | –
[2], 110 kPa | 119.20 | –
[2], 120 kPa | 122.11 | –
[2], 130 kPa | 125.01 | –
[2], 140 kPa | 127.69 | –
[2], 150 kPa | 130.49 | –

CCOC(C)=O [ethyl acetate]
Conditions | Boiling temperature at pressure P [°C] | vapor or sublimation pressure [kPa]
[1], 330.41 K | – | 50
[1], 349.7 K | – | 100
[1], 362.48 K | – | 150
[2], 54.99 kPa | 59.67 | –
[2], 59.98 kPa | 62.01 | –
[2], 70 kPa | 66.27 | –
[2], 75 kPa | 67.77 | –
[2], 80 kPa | 70.03 | –
[2], 84.99 kPa | 71.78 | –
[2], 89.91 kPa | 73.43 | –
[2], 95.01 kPa | 75.1 | –
[2], 101.33 kPa | 77.01 | –
[2], 104.99 kPa | 78.11 | –
[2], 109.98 kPa | 79.52 | –
[2], 119.9 kPa | 82.21 | –
[2], 124.98 kPa | 83.47 | –
[2], 129.93 kPa | 84.71 | –
[2], 134.95 kPa | 85.93 | –
[2], 139.96 kPa | 87.09 | –
[2], 149.95 kPa | 89.33 | –
[2], 154.97 kPa | 90.41 | –
[2], 159.96 kPa | 91.5 | –
[2], 164.99 kPa | 92.49 | –
[2], 174.99 kPa | 94.46 | –
[2], 180 kPa | 95.43 | –
[2], 185 kPa | 96.4 | –

CC(=O)OCCC(C)C [3-methylbutyl ethanoate]
Conditions | Boiling temperature at pressure P [°C] | vapor or sublimation pressure [kPa]
[1], 413.99 K | – | 100
[2], 20 kPa | 92.14 | –
[2], 29.98 kPa | 102.91 | –
[2], 40.01 kPa | 111.16 | –
[2], 49.99 kPa | 117.92 | –
[2], 60 kPa | 123.61 | –
[2], 70 kPa | 128.57 | –
[2], 80.01 kPa | 133.03 | –
[2], 90 kPa | 137.09 | –
[2], 100.01 kPa | 140.8 | –
[2], 110 kPa | 144.00 | –
[2], 119.99 kPa | 147.28 | –
[2], 130 kPa | 150.31 | –
[2], 139.99 kPa | 153.18 | –
[2], 149.99 kPa | 155.90 | –
[2], 160.01 kPa | 158.46 | –

Source: the NIST ThermoML archive (doi:10.1021/acs.jced.6b00221)
